Columns and labels:
[1] = Cytotoxicity against human U-87 MG cells incubated for 22 hrs by cell counting kit analysis; format: functional, cell-based, U-87MG ATCC
[2] = Octanol/water partition coefficient, logP of compound at 10 mg incubated for 24 hrs by ICP-MS analysis; format: physicochemical
[3] = Cytotoxicity against HEK293 cells assessed as cell survival at upto 100 uM incubated for 22 hrs by cell counting kit analysis relative to control; format: toxicity, cell-based; details: human, read-out: Survival
HEK293 = assay: Cytotoxicity against HEK293 cells assessed as reduction in cell survival at higher concentrations incubated for 22 hrs by cell counting kit analysis; format: toxicity, cell-based; details: human, hek293, 22 h
[4] = Cytotoxicity against HEK293 cells incubated for 22 hrs by cell counting kit analysis; format: toxicity, cell-based; details: human
[5] = Effective permeability of the compound in pH 7.4 at 25 uM incubated for 4 hrs by PAMPA-BBB assay; format: ADME; details: read-out: Peff
[6] = Cytotoxicity against human U-87 MG cells assessed as cell survival at 100 uM incubated for 22 hrs by cell counting kit analysis relative to control; format: functional, U-87MG ATCC; details: read-out: Survival
[7] = Biodistribution in blood of BALB/c nude mouse xenografted with human U-87 MG cells assessed as boron concentration at 500 mg/kg, ip measured 4 hrs post injection by ICP-MS analysis; format: ADME, organism-based; details: in vivo

For OB(O)c1ccc(-c2nc3ccccc3s2)cc1, the IC50 [1] was 112 µM, the logP at 24 h [2] was 0.32 and the viability at 22 h, up to 100 µM [3] was > 95%. The Activity (HEK293) was “Toxic”, the IC50 at 22 h [4] was 265 µM and the Papp at 4 h, 25 µM [5] was 59.8 ×10⁻⁶ cm/s. For the same molecule, the viability at 100 µM [6] was < 43% and the Drug uptake [7] was “Active”.

— ChEMBL document CHEMBL5113544, “Development of Brain-Tumor-Targeted Benzothiazole-Based Boron Complex for Boron Neutron Capture Therapy” (ACS Med Chem Lett, 2022)
